Structures can show the parent of a compound that is named as a salt.

Test system in the first series: not given
Test: not given
Conditions: not given
The melting point is the temperature of the solid-liquid transition. In turn, `Fc1ccc(CCN2CCC(Sc3cccc(Cl)n3)CC2)cc1` (as salt: hydrochloride) [Example 2, 2-chloro-6-{1-[2-(4-fluorophenyl)ethyl]piperidin-4-ylsulfanyl}pyridine] registered a melting point of 237 to 240 °C.

The compound `[O-][S+](c1cccc(Cl)n1)C1CCN(CCc2ccc(F)cc2)CC1` (stereo not shown) (as salt: hydrochloride) [Example 3, 2-chloro-6-{1-[2-(4-fluorophenyl)ethyl]piperidine-4-sulfinyl}pyridine] showed a melting point of 208 °C.

Take `O=S(=O)(c1cccc2cccnc12)N1CCN(CCc2ccc(F)cc2)CC1` (as salt: hydrochloride) [compound 1, 4-(8-Quinolinesulfonyl)-1-[2-(4-fluorophenyl)ethyl]piperazine]: the melting point is 141 °C.

A further series deals with T1, 5-HT2A receptors (Rattus norvegicus, UniProt P14842).
T1 construct: Frontal rat cortex is homogenized in ice-cold buffer; from tissue; host or cells: rat frontal cortex homogenate (membrane pellet)
T1 sequence (P14842 whole entry): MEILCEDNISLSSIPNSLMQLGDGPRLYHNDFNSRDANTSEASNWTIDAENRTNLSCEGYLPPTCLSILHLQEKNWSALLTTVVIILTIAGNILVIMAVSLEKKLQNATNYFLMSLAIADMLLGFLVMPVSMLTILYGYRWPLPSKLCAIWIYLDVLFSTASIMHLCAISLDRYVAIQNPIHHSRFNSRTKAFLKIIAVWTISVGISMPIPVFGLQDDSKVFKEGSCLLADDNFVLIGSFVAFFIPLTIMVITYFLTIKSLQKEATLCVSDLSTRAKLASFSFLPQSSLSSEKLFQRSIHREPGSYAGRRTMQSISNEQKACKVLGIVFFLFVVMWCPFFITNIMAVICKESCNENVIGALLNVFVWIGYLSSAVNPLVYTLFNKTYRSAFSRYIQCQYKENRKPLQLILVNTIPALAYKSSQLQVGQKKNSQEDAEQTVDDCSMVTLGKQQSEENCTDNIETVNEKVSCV
The series can be described thus: [3H]ketanserine displacement at 5-HT2A receptors (Example A1). The format is binding. The note with it: frontal rat cortex homogenate, 15 minutes at 37° C. The procedure: For the in-vitro detection of affinity to 5-HT2A receptors, the following test (Example A1), for example, can be used. The 5-HT2A receptors are exposed both to [^3H]ketanserine (a substance which is known for its affinity to the receptor) and also to the test compound. The decrease in the affinity of [^3H]ketanserine to the receptor is an indication of the affinity of the test substance to the 5-HT2A receptor. The detection is carried out analogously to the description by J. E. Leysen et al., Molecular Pharmacology, 1982, 21: 301-314, or as also described, for example, in EP 0320983.
Preparation of a Suspension of 5-HT2A Receptors:
Frontal rat cortex is homogenized in ice-cold buffer. The homogenate is centrifuged for 10 minutes at 4° C. and 50,000 X. The pellet is re-suspended in 2.5 ml of ice-cold tris buffer, made up to 10 ml with additional buffer and centrifuged as described. The pellet is then re-suspended in buffer and diluted to give a homogenate comprising 60 mg of material/ml. 0.1 ml of the suspension, 100 μl of a 5 nM solution of [^3H]ketanserine and 100 μl of a solution of the test compound (concentration in the range from 10^−5 to 10^−10 mol per litre) are introduced into the incubation tubes and made up to 1 ml with buffer. The tubes are incubated for 15 minutes at 37° C. After the incubation has been terminated by dipping the tubes into an ice bath, the cooled suspension is filtered through a glass filter under reduced pressure. The filters are washed 3× with 5 ml of cold buffer and then transferred into scintillation tubes. The filters are analysed by liquid scintillation spectrometry in 8 ml of Triton-X scintillator liquid.
Broadly, the IC50 is the point on the concentration scale where inhibition reaches its midpoint. High values mean weaker potency in that assay, low ones greater potency in that assay. For `O=S(=O)(c1cccc2cccnc12)N1CCN(CCc2ccc(F)cc2)CC1` [compound 1, 4-(8-Quinolinesulfonyl)-1-[2-(4-fluorophenyl)ethyl]piperazine], the IC50 came to 1.3 nM.

`O=S(=O)(c1cccc2ccccc12)N1CCN(CCc2ccc(F)cc2)CC1` [compound 2, 4-(1-Naphthylsulfonyl)-1-[2-(4-fluorophenyl)ethyl]piperazine]: the IC50 turned out to be 8.1 nM. This IC50 lies about 6.2-fold higher than the previous one.

As to `O=S(=O)(c1ccc(F)cc1)N1CCN(CCc2ccc(F)cc2)CC1` [compound 3, 4-(4-Fluorophenylsulfonyl)-1-[2-(4-fluorophenyl)ethyl]piperazine], the IC50 turned out to be 25 nM.

In turn, `CC(=O)Nc1cccc2c(S(=O)(=O)N3CCN(CCc4ccc(F)cc4)CC3)cccc12` [compound 4, 4-(5-Acetamidonaphth-1-yl-sulfonyl)-1-[2-(4-fluorophenyl)ethyl]piperazine] had a 50% inhibitory concentration (IC50) of 7.4 nM.

As for `O=S(=O)(c1cccc2nonc12)N1CCN(CCc2ccc(F)cc2)CC1` [compound 5, 4-(2,1,3-Benzoxadiazol-4-ylsulfonyl)-1-[2-(4-fluorophenyl)ethyl]piperazine], the IC50 was 44 nM.

In turn, `O=[N+]([O-])c1ccccc1S(=O)(=O)N1CCN(CCc2ccc(F)cc2)CC1` [compound 6, 4-(2-Nitrophenylsulfonyl)-1-[2-(4-fluorophenyl)ethyl]piperazine] displayed an IC50 of 9.2 nM.

As for `O=S(=O)(c1ccc2c(c1)CCN2)N1CCN(CCc2ccc(F)cc2)CC1` [compound 7, 4-(2,3-Dihydro-1H-indole-5-sulfonyl)-1-[2-(4-fluorophenyl)ethyl]piperazine], the IC50 was determined as 13 nM. This IC50 and that of the compound before are within 1.5-fold of each other.

With `N#Cc1c[nH]c2ccc(S(=O)(=O)N3CCN(CCc4ccc(F)cc4)CC3)cc12` [compound 8, 4-(3-Cyano-1H-indole-5-sulfonyl)-1-[2-(4-fluorophenyl)ethyl]piperazine], the IC50 came to 1.6 nM. Compared with the last compound, the IC50 is about 8.1-fold lower.

In turn, `O=S(=O)(c1ccc(F)cc1)C1CCN(CCc2ccc(F)cc2)CC1` [compound 9, 4-(4-Fluorophenylsulfonyl)-1-(2-(4-fluorophenyl)ethyl]piperidine] had an IC50 of 2.1 nM. The IC50 values of the last two compounds are within 1.5-fold of each other.

`O=S(=O)(c1cccc(Cl)n1)C1CCN(CCc2ccc(F)cc2)CC1` [compound 10, 2-Chloro-6-{1-[2-(4-fluorophenyl)ethyl]piperidin-4-sulfonyl}pyridine] returned an IC50 of 0.6 nM.
